{
  "source": "patent US12661353B2",
  "about": "“SPT5 inhibitors and uses thereof” (Yeda Research and Development Co. Ltd., priority 2020, dated 2026)",
  "key": {"[1]": {"system": "HSPA6 and HSPA1A", "test": "mRNA of heat shock genes HSPA6 and HSPA1A, HeLa, RT-qPCR", "format": "cell-based, human", "description": "RNA analysis—Total RNA was extracted using Tri-reagent (Bio-Lab Chemicals) and Direct-Zol™ RNA MiniPrep kit (Zymo Research). Following, cDNA was synthesized from […] of total RNA using a High-Capacity cDNA Reverse Transcription Kit (ABI, Thermo Fisher Scientific). cDNA samples were analyzed by quantitative PCR (qPCR) in a ViiA 7 Real-Time PCR System using Fast qPCRBIO SYBR Green Mix (PCR Biosystems).\nA major limitation of KD and KO studies is the prolonged deficiency of the target protein. Small molecule inhibitors on the other hand, inactivate their target shortly following their application. […] Reads were aligned to the human genome and normalized expression of each gene was determined. Subsequently, the following ratios were calculated: TNFα vs. control, which describes the response to TNFα; SPI-21 vs. control, which describes the effect of SPI-21 on gene expression under basal conditions; and SPI-21+TNFα vs. TNFα, which describes the effect of SPI-21 under TNFα-induced conditions. […] To test this possibility, cells were treated with SPI-21 for 2 and 24 hours and the levels of the heat shock genes HSPA6 and HSPA1A were determined by RT-qPCR. […] To further test the idea of kinetically distinct Spt5 target genes, the global effect of long-term SPI-21 treatment (24 hours) was determined by RNA-seq and the affected genes between the short and long-term treatments were compared. […]"}, "[2]": {"system": "wild type (Q7) Htt", "test": "Newly synthesized Htt transcripts, 4sU metabolic labeling, Q7 cells", "format": "cell-based, mouse", "settings": "4sU for 2 hours", "description": "Metabolic labeling of newly synthesized RNA with 4-thiouridine (4sU)—STHdh Q111 and STHdh Q7 cells (collected from 10 cm dishes) were treated for 30 minutes with DMSO (vehicle control) or the tested SPI compound (e.g., SPJ-21). Following, 4-thiouridine (4sU, 150 μM final concentration) was added for additional 2 hours. The labeling was terminated by removing the 4sU-containing medium and washing the cells 3 times with phosphate-buffered saline (PBS). Total RNA was extracted as described above. 10 μg of RNA were biotinylated using biotin-HPDP (1:5; A8008, APExBIO) for 1.5 hours at room temperature and the biotinylated RNA was purified using chloroform and isopropanol extraction and dissolved in DEPC water. Following, the biotinylated RNA was captured by incubation with Streptavidin-coated magnetic beads (NEB, S1420S) for 30 minutes at room temperature in constant rotation. Bound RNA was eluted with 100 μl of 0.1 M fresh DTT. […]\nHuntington's disease (HD) is an inherited genetic disorder caused by expansion trinucleotide CAG repeats (36 and higher) encoding glutamine (Q) in the huntingtin (Htt) gene. […] The two cell lines were treated for 48 hours with the identified SPIs and following the levels of Htt mRNA were determined. […] Moreover, the levels measured from the second exon relative to the first were fairly higher in Q7 compared to Q111 and this small difference was kept all along the gene. […]"}},
  "data": [
    {"compound": "COc1ccc(C=CC(=O)c2cc(O)ccc2O)cc1", "note": "[SPI-21]", "values": [
      {"measurement": "levels of heat shock genes HSPA6 and HSPA1A", "setting": "[1]; 2 hours treatment", "result": "strongly up-regulated"},
      {"measurement": "extent of activation of HSPA6 and HSPA1A", "setting": "[1]; 24 hours treatment", "result": "substantially smaller"},
      {"measurement": "levels of newly synthesized Q7 Htt", "setting": "[2]", "result": "not Q7 Htt were diminished"}
    ]}
  ]
}
